Experiments:
Assay in all cases: UV-Vis absorption titration at 316 nm
[1] = system: 2HY9 (DNA, G4) AAAGGGTTAGGGTTAGGGTTAGGGAA; details: 100 mM K+, 50 mM Tris-HCl, pH 7.4, hybrid G4, per base
[2] = system: c-MYC (DNA, G4) TGGGGAGGGTGGGGAGGGTGGGGAAGG; details: 100 mM K+, 50 mM Tris-HCl, pH 7.4, parallel G4, per base
[3] = system: hTelo (DNA, G4) AGGGTTAGGGTTAGGGTTAGGG; details: 50 mM Tris-HCl

**Q.** Which Kb [1] does the source give for `COc1ccc2c(c[n+](C)c3c4cc5c(cc4ccc23)OCO5)c1OC` here?
**A.** The Kb was “(1.1 ± 0.1) × 10^5 M^-1”.

**Q.** What about the Kb [2] of the same molecule?
**A.** The Kb was “(1.0 ± 0.1) × 10^5 M^-1”.

**Q.** And the Kb ([3]; 100 mM K+, pH 7.4, 40% (w/v) PEG 200, parallel G4, per base)?
**A.** The Kb was “(3.5 ± 0.9) × 10^5 M^-1”.

**Q.** And the Kb ([3]; 100 mM Na+, pH 7.4, antiparallel G4, per base)?
**A.** Its Kb is “(2.69 ± 0.06) × 10^5 M^-1”.
